Results: patent US9617244B2, “Antibacterial quinoline derivatives” (JANSSEN PHARMACEUTICA NV, priority 2012, dated 2017)
Values after ≈ are worked out from the molar mass of the structure shown.

Legend:
[1] = tested on: Mycobacterium smegmatis (ATCC607); experiment: In-vitro anti-bacterial activity against strain M. Smegmatis ATCC607; format: cell-based; details: 90% inhibitory concentration for bacterial growth, Alamar Blue fluorescence; for IC90 MSM 607: 48 hours; for IC90: Mycolicibacterium smegmatis, ATCC607, 48 h, read-out: IC90 MSM 607
In short: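 Serial five-fold compound dilutions in BSA-supplemented wells, inoculated with ~250 CFU/well in Mueller-Hinton broth, incubated 48 h at 37 °C, 5% CO2. Growth read by Alamar Blue fluorescence (ex 530/em 590 nm); IC90 in μg/ml.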

[2] = tested on: Staphylococcus aureus (ATCC29213); experiment: In-vitro anti-bacterial activity, microtitre plate assay, IC90 determination (non-mycobacterial strains); format: cell-based; details: 90% inhibitory concentration for bacterial growth, resazurin fluorescence; for IC90 STA B29213: 24 hours; for IC90: Staphylococcus aureus, ATCC29213, 24 h, read-out: IC90 STA B29213
In short: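 Inoculum of about 100 TCID50 (10–60 CFU/well) in Mueller-Hinton broth, serial five-fold compound dilutions, 24 h at 37 °C in air. Growth read by resazurin fluorescence (ex 530/em 590 nm); IC90 in μg/ml as 90% growth inhibition.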

SMILES	melting point [°C]	IC90 MSM 607 [1] [µg/mL]	IC90 STA B29213 [2] [µg/mL]	IC90 [2] [µg/mL]	IC90 [1] [µg/mL]
COc1nc2ccc(S(C)(=O)=O)cc2cc1C(c1ccc(Cl)cc1)C1(O)CCNC(c2ccc(F)cc2C)C1 (stereo not drawn) [Compound 200]	187	5.69 (≈ 10 µM)	5.69 (≈ 10 µM)		
COc1nc2ccc(F)cc2cc1C(c1ccc(Cl)cc1)C1(O)CCNC(Cc2ccccc2)C1 (stereo not drawn) [Compound 52]	176	0.62 (≈ 1.26 µM)	1.23 (≈ 2.51 µM)		
COc1nc2ccc(S(C)(=O)=O)cc2cc1C(c1ccc(Cl)cc1)C1(O)CCNC(c2ccc3ccccc3c2)C1 (stereo not drawn) [Compound 465]	168	2.62 (≈ 4.46 µM)	5.87 (≈ 10 µM)		
COc1nc2ccc(S(C)(=O)=O)cc2cc1C(c1ccc(Cl)cc1)C1(O)CCNC(c2ccc3ccccc3c2)C1 (stereo not drawn) [Compound 463]	160	2.34 (≈ 3.99 µM)	14.75 (≈ 25.1 µM)		
COc1nc2ccc(S(C)(=O)=O)cc2cc1C(c1ccc(Cl)cc1)C1(O)CCNC(Cc2ccccc2)C1 (stereo not drawn) [Compound 97]	120	13.84 (≈ 25.1 µM)	>13.84		
COc1nc2ccc(Cl)cc2cc1C(c1ccc(Cl)cc1)C1(O)CCNCC1F (stereo not drawn) [Compound 456]	115	10.94 (≈ 25.1 µM)	10.94 (≈ 25.1 µM)		
COc1nc2ccc(Br)cc2cc1C(c1ccc(S(C)(=O)=O)cc1)C1(O)CCNC(Cc2ccccc2)C1 (stereo not drawn) [Compound 103]	135	14.96 (≈ 25.1 µM)	14.96 (≈ 25.1 µM)		
COc1nc2ccc(Br)cc2cc1C(c1ccccc1)C1(O)CCNCC1C (stereo not drawn) [Compound 426]	174	>11.09	>11.09		
COc1nc2ccc(Br)cc2cc1C(c1ccc(Cl)cc1)C1(O)CCNC(Cc2ccccc2)C1 (stereo not drawn) [Compound 31]	183	1.90 (≈ 3.44 µM)		3.48 (≈ 6.31 µM)	
COc1nc2ccc(SC)cc2cc1C(c1ccc(Cl)cc1)C1(O)CCNC(Cc2ccc(F)cc2)C1 (stereo not drawn) [Compound 261]	122	1.70 (≈ 3.17 µM)	1.70 (≈ 3.17 µM)		
COc1nc2ccc(Br)cc2cc1C(c1ccc(Cl)cc1)C1(O)CCNC(Cc2ccc(F)cc2)C1 (stereo not drawn) [Compound 356]	98	1.80 (≈ 3.16 µM)	1.80 (≈ 3.16 µM)		
COc1nc2ccc(Br)cc2cc1C(c1ccc(Cl)cc1)C1(O)CCNC(Cc2ccc(F)cc2)C1 (stereo not drawn) [Compound 355]	190	1.43 (≈ 2.51 µM)	3.60 (≈ 6.32 µM)		
CS(=O)(=O)c1ccc2[nH]c(=O)c(C(c3ccc(Cl)cc3)C3(O)CCNC(Cc4ccc(F)cc4)C3)cc2c1 (stereo not drawn) [Compound 56]	140	>13.94	>13.94		
COc1nc2ccc(SC)cc2cc1C(c1cccc(Cl)c1)C1(O)CCNC(Cc2ccc(F)cc2F)C1 (stereo not drawn) [Compound 318]	133	1.76 (≈ 3.17 µM)	1.76 (≈ 3.17 µM)		
COc1nc2ccc(Cl)cc2cc1C(c1ccc(Cl)cc1)C1(O)CCNCC1F (stereo not drawn) [Compound 451]	110	2.18 (≈ 5.01 µM)	5.48 (≈ 12.6 µM)		
COc1nc2ccc(S(C)(=O)=O)cc2cc1C(c1ccccc1)C1(O)CCNC(c2ccc(F)cc2C)C1 (stereo not drawn) [Compound 187]	167	13.43 (≈ 25.1 µM)	>13.43		
COc1nc2ccc(SC)cc2cc1C(c1ccc(Cl)cc1)C1(O)CCNC(c2ccc(F)cc2C)C1 (stereo not drawn) [Compound 273]	204	1.70 (≈ 3.17 µM)	3.39 (≈ 6.31 µM)		
COc1nc2ccc(SC)cc2cc1C(c1ccc(Cl)cc1)C1(O)CCNC(Cc2ccc(F)cc2)C1 (stereo not drawn) [Compound 299]	110	1.35 (≈ 2.51 µM)	1.70 (≈ 3.17 µM)		
COc1nc2ccc(S(C)(=O)=O)cc2cc1C(c1ccc(Cl)cc1)C1(O)CCNCC1(C)C (stereo not drawn) [Compound 397]	180			> 12.3	> 12.3

SMILES	melting point [°C]	IC90 MSM 607 [1] [µg/mL]	IC90 STA B29213 [2] [µg/mL]	IC90 [2] [µg/mL]	IC90 [1] [µg/mL]
COc1nc2ccc(SC)cc2cc1C(c1ccc(Cl)cc1)C1(O)CCNCC1Cc1cccc(F)c1 (stereo not drawn) [Compound 283]	184	3.39 (≈ 6.31 µM)	3.39 (≈ 6.31 µM)		
COc1nc2ccc(S(C)(=O)=O)cc2cc1C(c1ccc(Cl)cc1)C1(O)CCNCC1Cc1cccc[n+]1[O-] (stereo not drawn) [Compound 66]	184	>14.27	>14.27		
COc1nc2ccc(Br)cc2cc1C(c1ccccc1)C1(O)CCNC(c2ccc(F)cc2C)C1 (stereo not drawn) [Compound 249]	178	1.07 (≈ 2 µM)	1.69 (≈ 3.16 µM)		
COc1nc2ccc(S(C)(=O)=O)cc2cc1C(c1ccc(Cl)cc1)C1(O)CCNC(c2ccc(F)cc2C)C1 (stereo not drawn) [Compound 218]	174	2.85 (≈ 5.01 µM)	5.69 (≈ 10 µM)		
COc1nc2ccc(Br)cc2cc1C(c1ccccc1)C1(O)CCNC(c2ccc(F)cc2C)C1 (stereo not drawn) [Compound 248]	134	2.68 (≈ 5.01 µM)	3.38 (≈ 6.31 µM)		
COc1nc2ccc(F)cc2cc1C(c1ccc(S(C)(=O)=O)cc1)C1(O)CCNC(c2ccc(F)cc2C)C1 (stereo not drawn) [Compound 417]	150			> 13.9	> 13.9
COc1nc2ccc(SC)cc2cc1[C@@H](c1ccc(Cl)cc1)C1(O)CCNCC1(C)C (stereo in doubt) [Compound 62]	212			5.75 (≈ 12.6 µM)	4.57 (≈ 10 µM)
COc1nc2ccc(Br)cc2cc1C(c1ccc(Cl)cc1)C1(O)CCNC(C)C1 (stereo not drawn) [Compound 11]	143			3 (≈ 6.3 µM)	3 (≈ 6.3 µM)
COc1nc2ccc(S(C)(=O)=O)cc2cc1C(c1ccc(Cl)cc1)C1(O)CCNCC1Cc1cccc(F)c1 (stereo not drawn) [Compound 291]	150	7.16 (≈ 12.6 µM)		7.16 (≈ 12.6 µM)	
CS(=O)(=O)c1ccc2[nH]c(=O)c(C(c3ccccc3)C3(O)CCNC(Cc4ccccc4)C3)cc2c1 (stereo not drawn) [Compound 155]	194	>12.63	>12.63		
O=c1[nH]c2ccc(Cl)cc2cc1C(c1ccc(Cl)cc1)C1(O)CCNC(CO)C1 (stereo not drawn) [Compound 446]	210		10.89 (≈ 25.1 µM)		5.46 (≈ 12.6 µM)
COc1nc2ccc(Cl)cc2cc1C(c1ccc(Cl)cc1)C1(O)CCNCC1F (stereo not drawn) [Compound 450]	200	4.35 (≈ 9.99 µM)	8.69 (≈ 20 µM)		
COc1nc2ccc(S(C)(=O)=O)cc2cc1C(c1ccccc1)C1(O)CCNC(c2ccc(F)cc2C)C1 (stereo not drawn) [Compound 186]	166	8.47 (≈ 15.8 µM)	9.51 (≈ 17.8 µM)		
COc1nc2ccc(-c3cccnc3)cc2cc1C(c1cccc(Cl)c1)C1(O)CCNC(Cc2ccccc2)C1 (stereo not drawn) [Compound 36]	120			3.47 (≈ 6.31 µM)	2.19 (≈ 3.98 µM)
COc1nc2ccc(SC)cc2cc1C(c1ccc(Cl)cc1)C1(O)CCNC(c2ccc(F)cc2C)C1 (stereo not drawn) [Compound 275]	140	1.35 (≈ 2.51 µM)	0.85 (≈ 1.58 µM)		
COc1nc2ccc(SC)cc2cc1C(c1ccc(Cl)cc1)C1(O)CCNC(Cc2ccc(F)cc2)C1 (stereo not drawn) [Compound 262]	94	3.39 (≈ 6.31 µM)	7.59 (≈ 14.1 µM)		
COc1nc2ccc(F)cc2cc1C(c1ccc(S(C)(=O)=O)cc1)C1(O)CCNC(c2ccc(F)cc2C)C1 (stereo not drawn) [Compound 419]	154	11.03 (≈ 20 µM)	11.03 (≈ 20 µM)		
COc1nc2ccc(Br)cc2cc1C(c1ccc(Cl)cc1)C1(O)CCNC(CC2CCCCC2)C1 (stereo not drawn) [Compound 257]	108	3.14 (≈ 5.63 µM)	4.97 (≈ 8.91 µM)		
